Measured values: US20240262801A1, “COMPOUNDS HAVING 5-(2-FLUORO-6-HYDROXYPHENYL)-1,2,5-THIADIAZOLIDIN-3-ONE 1,1-DIOXIDE AS INHIBITORS OF PROTEIN KINASE PHOSPHATASE ENZYMES” (Ness Therapeutics, Inc., priority 2021, published 2024)
Counter-ions that a name gives are not always drawn. Like-named read-outs stand apart in the source and are kept apart here.

Tests used:
GST-tagged PTPN2 protein = target: T1, GST-tagged PTPN2 protein (Homo sapiens, UniProt P17706); assay: Primary assay of PTPN2 enzymatic activity inhibition (DiFMUP fluorescence); type: biochemical; settings: DiFMUP substrate 2 μM, 60 min at RT
T1 construct: purchased ActiveMotif 31592
Experimental: Compound activity was determined using GST-tagged PTPN2 protein (Cat #31592, ActiveMotif) (SEQ ID NO: 1) in an in vitro enzymatic reaction. The enzymatic reaction was carried out in assay buffer (50 mM HEPES Na salt pH 7.2-7.4, 2 mM EDTA, 100 mM NaCl, 52 ng/μL BSA, and 6 mM DTT). The compounds were dispensed on a 384 well Diamond Well Plate (Axigen, Cat #P-384-120SQ-C-S) using the Biomek FX liquid handling system at 100× solutions of compounds in DMSO. 2× PTPN2 (final concentration 0.004 ng/μL) was prepared in 1× Assay buffer and 25 μL of mixture per well was added into Reaction plate (Optiplate, black, Perkin Elmer, Cat #6007270). Add 25 μL of 1× buffer to Ctrl- (Substrate w/o PTPN2) wells followed by centrifugation at 100 g for 1 min. Next step the Compounds were added to Reaction plate using Biomek station via following steps: 3 ul of 100× compounds (in DMSO) were mixed with 27 μL of Assay Buffer, then 5 μL of this mixture was added to Reaction plate with 25 μL of PTPN2 Mix. Plates were centrifuged for 1 min at 100 g and incubated for another 10 minutes at room temperature. Finally, 20 μL of 2.5× Substrate (DiFUMP, Invitrogen™ Cat #D6567) mix was added into appropriate wells of Reaction plate to the final concentration of 2 μM, plate was centrifuged at 100 g for 1 min followed by incubation at RT for 60 min, and the Fluorescence Intensity was measured using a Microplate Reader (ClarioStar Plus, excitation 360 nm, emission 450 nm). The % inhibition was then used to calculate the IC50 values. The IC50 values are shown in Table A1, wherein “A” corresponds to IC50<5.0 nm, “B” corresponds to 5.0 nm≤IC50<10.0 nm, “C” corresponds to 10.0 nm≤IC50<50.0 nm, “D” corresponds to 50.0 nm≤IC50<100.0 nm, and “E” corresponds to 100.0 nm≤IC50<500.0 nm, and “F” corresponds to 500.0 nm≤IC50.

[1] = system: B16F10 mouse melanoma cells; assay: Tumor cells B16F10 cellular growth IFNγ-induced inhibition assay (CellTiter-Glo); type: cell-based; settings: for IC50: B16-F10, 72 h, 3 days incubation; for inhibition at 100 µM: B16-F10, B16F10, 100 μM compound
Experimental: B16F10 mouse melanoma cells (ATCC Cat #CRL-6475) were seeded at a density of 500 cells per well in a 384-well clear bottom plate (Corning Cat #3712, Corning, N.Y.) in 40 μL total volume of DMEM+10% FBS (PanEco Cat #C420, Russia and Sigma Cat #F4135, St. Louis, Mo.). Cells were allowed to adhere overnight at 37° C., 5% CO2. On the following day, 250× solutions of compounds in DMSO (Sigma Cat #D2650) were prepared into […] plate (Diamond Well Plate, Axigen, Cat #P-384-120SQ-C-S) (final concentration of 1×) and DMSO only controls were included. Dilution Plate (Diamond Well Plate (Axigen, Cat #P-384-120SQ-C-S) was prepared by adding 49 μL of culture medium per well: half of the plate with culture medium only, half with culture medium+IFNγ (5 ng/ml). A 1 μL aliquot of 250× compounds ([…] plate) was added to 49 μL of culture medium (Dilution plate), then a 10 μL aliqut of the mixture was transferred to Reaction plate with 40 μL of cells followed by centrifugation at 240 g for 1 min. After 3 days of incubation, 10 μL of CellTiter-Glo (Promega) was added to the cells, plates were centrifuged at 240 g for 1 min, and luminescence signal was measured. For each compound, the percent growth inhibition at every compound dose level was calculated relative to the “DMSO/with IFNγ” control and used to determine the IC50.

[2] = B16F10, + IFNγ, read-out: IC50 + IFNγ
[3] = B16F10, no IFNγ, read-out: IC50 no IFNγ
[4] = + IFNγ, read-out: % Growth Inhibition at 100 μM + IFNγ
[5] = no IFNγ, read-out: % Growth Inhibition at 100 μM no IFNγ

T1 sequence (P17706 with tags, fused parts or gaps): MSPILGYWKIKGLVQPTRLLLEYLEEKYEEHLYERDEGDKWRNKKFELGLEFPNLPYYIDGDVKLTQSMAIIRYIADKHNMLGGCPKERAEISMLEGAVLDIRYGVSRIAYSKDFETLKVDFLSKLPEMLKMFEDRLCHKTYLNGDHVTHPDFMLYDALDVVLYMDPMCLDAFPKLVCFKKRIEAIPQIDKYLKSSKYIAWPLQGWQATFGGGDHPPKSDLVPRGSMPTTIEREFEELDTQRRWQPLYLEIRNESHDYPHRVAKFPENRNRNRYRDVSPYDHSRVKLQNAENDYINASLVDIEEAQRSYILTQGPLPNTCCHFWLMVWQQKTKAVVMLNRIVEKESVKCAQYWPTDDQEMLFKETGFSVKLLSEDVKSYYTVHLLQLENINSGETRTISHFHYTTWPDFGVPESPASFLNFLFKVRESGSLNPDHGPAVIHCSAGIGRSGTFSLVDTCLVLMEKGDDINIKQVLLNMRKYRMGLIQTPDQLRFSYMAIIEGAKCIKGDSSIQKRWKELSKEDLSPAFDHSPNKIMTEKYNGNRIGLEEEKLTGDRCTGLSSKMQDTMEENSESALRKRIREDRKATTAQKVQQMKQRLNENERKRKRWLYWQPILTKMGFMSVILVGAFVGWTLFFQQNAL

| SMILES | IC50 (GST-tagged PTPN2 protein) [nM] | IC50 [1, 2] [µM] | IC50 [1, 3] [µM] | inhibition at 100 µM [1, 4] [%] | inhibition at 100 µM [1, 5] [%] |
| --- | --- | --- | --- | --- | --- |
| O=C1CN(c2c(O)cc(NS(=O)(=O)c3ccccc3F)cc2F)S(=O)(=O)N1 [Example 21, N-[4-(1,1-dioxido-4-oxo-1,2,5-thiadiazolidin-2-yl)-3-fluoro-5-hydroxyphenyl]-2-fluorobenzenesulfonamide] | 100 to 500 | 10 to 50 | ≥ 100 | 50 to 75 | 10 to 50 |
| Cc1ccc(S(=O)(=O)Nc2cc(O)c(N3CC(=O)NS3(=O)=O)c(F)c2)cc1 [Example 18, N-[4-(1,1-dioxido-4-oxo-1,2,5-thiadiazolidin-2-yl)-3-fluoro-5-hydroxyphenyl]-4-methylbenzenesulfonamide] | 10 to 50 | 50 to 100 | ≥ 100 | 50 to 75 | 10 to 50 |
| Cc1ccccc1S(=O)(=O)Nc1cc(O)c(N2CC(=O)NS2(=O)=O)c(F)c1 [Example 23, N-[4-(1,1-dioxido-4-oxo-1,2,5-thiadiazolidin-2-yl)-3-fluoro-5-hydroxyphenyl]-2-methylbenzenesulfonamide] | 50 to 100 | 50 to 100 | ≥ 100 | 50 to 75 | 10 to 50 |
| O=C1CN(c2c(O)cc(NC(=O)N[C@@H]3c4ccccc4C[C@@H]3O)cc2F)S(=O)(=O)N1 [Example 108, 1-[3-fluoro-5-hydroxy-4-(1,1,4-trioxo-1,2,5-thiadiazolidin-2-yl)phenyl]-3-[(1R,2S)-2-hydroxyindan-1-yl]urea] | 10 to 50 | 10 to 50 | ≥ 100 | 50 to 75 | 10 to 50 |
| O=C1CN(c2c(O)cc(-c3cccc(NC4CCN(S(=O)(=O)Cc5ccccc5Cl)CC4)c3)cc2F)S(=O)(=O)N1 [Example 11, 5-[3′-({1-[(2-chlorobenzyl)sulfonyl]piperidin-4-yl}amino)-3-fluoro-5-hydroxybiphenyl-4-yl]-1,2,5-thiadiazolidin-3-one 1,1-dioxide] | 100 to 500 | 50 to 100 | ≥ 100 | 50 to 75 | 10 to 50 |
| Cc1cccc(-c2cc(O)c(N3CC(=O)NS3(=O)=O)c(F)c2)c1 [Example 9, 5-(3-fluoro-5-hydroxy-3′-methylbiphenyl-4-yl)-1,2,5-thiadiazolidin-3-one 1,1-dioxide] | 100 to 500 |  |  |  |  |
| Cc1ccccc1-c1cc(O)c(N2CC(=O)NS2(=O)=O)c(F)c1 [Example 6, 5-(3-fluoro-5-hydroxy-2′-methylbiphenyl-4-yl)-1,2,5-thiadiazolidin-3-one 1,1-dioxide] | ≥ 500 |  |  |  |  |
| CN(c1ccccc1)S(=O)(=O)Nc1cc(O)c(N2CC(=O)NS2(=O)=O)c(F)c1 [Example 31, N′-[4-(1,1-dioxido-4-oxo-1,2,5-thiadiazolidin-2-yl)-3-fluoro-5-hydroxyphenyl]-N-methyl-N-phenylsulfuric diamide] | 10 to 50 |  |  |  |  |
| Cc1ccc(-c2cc(O)c(N3CC(=O)NS3(=O)=O)c(F)c2)cc1 [Example 10, 5-(3-fluoro-5-hydroxy-4′-methylbiphenyl-4-yl)-1,2,5-thiadiazolidin-3-one 1,1-dioxide] | 100 to 500 |  |  |  |  |
| CN(C1CCCCC1)S(=O)(=O)Nc1cc(O)c(N2CC(=O)NS2(=O)=O)c(F)c1 [Example 32, N-cyclohexyl-N′-[4-(1,1-dioxido-4-oxo-1,2,5-thiadiazolidin-2-yl)-3-fluoro-5-hydroxyphenyl]-N-methylsulfuric diamide] | 10 to 50 |  |  |  |  |
| O=C1CN(c2c(O)cc(NC(=O)NCc3ccccc3)cc2F)S(=O)(=O)N1 [Example 60, 1-benzyl-3-[4-(1,1-dioxido-4-oxo-1,2,5-thiadiazolidin-2-yl)-3-fluoro-5-hydroxyphenyl]urea] | 10 to 50 |  |  |  |  |

Continued, in another order:

| IC50 (GST-tagged PTPN2 protein) [nM] | IC50 [1, 2] [µM] | IC50 [1, 3] [µM] | SMILES | inhibition at 100 µM [1, 4] [%] | inhibition at 100 µM [1, 5] [%] |
| --- | --- | --- | --- | --- | --- |
| < 5 | ≥ 100 | ≥ 100 | O=C1CN(c2c(O)cc(NC(=O)NC3CCN(S(=O)(=O)c4ccccc4Cl)CC3)cc2F)S(=O)(=O)N1 [Example 51, 1-{1-[(2-chlorophenyl)sulfonyl]piperidin-4-yl}-3-[4-(1,1-dioxido-4-oxo-1,2,5-thiadiazolidin-2-yl)-3-fluoro-5-hydroxyphenyl]urea] | 10 to 50 | 10 to 50 |
| 10 to 50 | 10 to 50 | ≥ 100 | O=C1CN(c2c(O)cc(NC(=O)NC3CCNCC3)cc2F)S(=O)(=O)N1 [Example 99, 1-[3-fluoro-5-hydroxy-4-(1,1,4-trioxo-1,2,5-thiadiazolidin-2-yl)phenyl]-3-(4-piperidyl)urea] | 50 to 75 | 10 to 50 |
| 5 to 10 | 10 to 50 | ≥ 100 | O=C1CN(c2c(O)cc(NC(=O)Nc3ccccc3)cc2F)S(=O)(=O)N1 [Example 35, 1-[4-(1,1-dioxido-4-oxo-1,2,5-thiadiazolidin-2-yl)-3-fluoro-5-hydroxyphenyl]-3-phenylurea] | 75 to 100 | 10 to 50 |
| < 5 |  |  | COc1ccc(NC(=O)Nc2cc(O)c(N3CC(=O)NS3(=O)=O)c(F)c2)cc1C(F)(F)F [Example 68, 1-[4-(1,1-dioxido-4-oxo-1,2,5-thiadiazolidin-2-yl)-3-fluoro-5-hydroxyphenyl]-3-[4-methoxy-3-(trifluoromethyl)phenyl]urea] |  |  |
| < 5 |  |  | CC(C)(C)OC(=O)N1CCN(c2ccc(NC(=O)Nc3cc(O)c(N4CC(=O)NS4(=O)=O)c(F)c3)cc2)CC1 [Example 66, tert-butyl 4-[4-({[4-(1,1-dioxido-4-oxo-1,2,5-thiadiazolidin-2-yl)-3-fluoro-5-hydroxyphenyl]carbamoyl}amino)phenyl]piperazine-1-carboxylate] |  |  |
| < 5 |  |  | O=C1CN(c2c(O)cc(NC(=O)Nc3ccc(OC(F)(F)F)cc3)cc2F)S(=O)(=O)N1 [Example 71, 1-[4-(1,1-dioxido-4-oxo-1,2,5-thiadiazolidin-2-yl)-3-fluoro-5-hydroxyphenyl]-3-[4-(trifluoromethoxy)phenyl]urea] |  |  |
| < 5 |  |  | O=C1CN(c2c(O)cc(NC(=O)Nc3ccc(N4CCOCC4)cc3)cc2F)S(=O)(=O)N1 [Example 65, 1-[4-(1,1-dioxido-4-oxo-1,2,5-thiadiazolidin-2-yl)-3-fluoro-5-hydroxyphenyl]-3-[4-(morpholin-4-yl)phenyl]urea] |  |  |
| < 5 |  |  | O=C1CN(c2c(O)cc(NC(=O)Nc3ccc(N4CCNCC4)cc3)cc2F)S(=O)(=O)N1 [Example 67, 1-[4-(1,1-dioxido-4-oxo-1,2,5-thiadiazolidin-2-yl)-3-fluoro-5-hydroxyphenyl]-3-[4-(piperazin-1-yl)phenyl]urea hydrochloride] |  |  |
| < 5 |  |  | O=C1CN(c2c(O)cc(NC(=O)Nc3ccccc3F)cc2F)S(=O)(=O)N1 [Example 93, 1-[4-(1,1-dioxido-4-oxo-1,2,5-thiadiazolidin-2-yl)-3-fluoro-5-hydroxyphenyl]-3-(2-fluorophenyl)urea] |  |  |
| < 5 |  |  | CC(C)c1ccc(NC(=O)Nc2cc(O)c(N3CC(=O)NS3(=O)=O)c(F)c2)cc1 [Example 70, 1-[4-(1,1-dioxido-4-oxo-1,2,5-thiadiazolidin-2-yl)-3-fluoro-5-hydroxyphenyl]-3-[4-(propan-2-yl)phenyl]urea] |  |  |
